Assay results: patent US20240140895A1, “NOVEL AROMATIC MOLECULES” (XENIOPRO GmbH, priority 2018, published 2024)

These molecules were tested on CAL-27 cells (human tongue squamous cell carcinoma cells) (assay: Proliferation assay (alamarBlue) with CAL-27 cells). Conditions: read-out: Activity Range: weighted arithmetic mean (AVEw) of normalized fluorescence intensity relative to DMSO basis level 1.0.
Format: cell-based
From the text: (§1) The antiproliferative activities of compounds falling under formula (Ia), (Tb) and (Ic), respectively, were investigated on cells or cell lines originating from a disorder of the haematopoietic system, including the myeloid cell compartment and the lymphoid cell compartment (T-cells and B-cells), the neuroendocrine system, the cervix, the breast, the ovaries, the lung, the gastrointestinal tract, and the mucosal epithelium, as well as from the skin epithelium and from the muscle. To this end, HL-60 cells, NB-4 cells, HH cells, RPMI-8402 cells, TANOUE cells, TT cells, HeLa cells, MDA-MB-231 cells, FU-OV-1 cells, LOU-NH91 cells, 23132/87 cells, CAL-27 cells, BHY cells, SCC-25 cells, A-431 cells, human primary epidermal keratinocytes (HPEK), and C2C12 cells were seeded into 96-well plates suitable for fluorescence assays (CORNING #3598) at following initial cell numbers: 1000 cells per well for HL-60; 1000 cells per well for NB-4; 5000 cells per well for HH; 5000 cells per well for RPMI-8402; 1500 cells per well for TANOUE; 9000 cells per well for TT; 2000 cells per well for HeLa; 3000 cells per well for MDA-MB-231; 3000 cells per well for FU-OV-1; 4000 cells per well for LOU-NH91; 2000 cells per well for 23132/87; 2000 cells per well for CAL-27; 1500 cells per well for BHY; 1500 cells per well for SCC-25; 700 cells per well for A-431; 1000 cells per well for HPEK; 500 cells per well for C2-C12. The cells were treated with compounds at indicated final concentrations (diluted from the 1000× stock-solutions in DMSO to a final DMSO concentration of 0.1% v/v in H2O (Water For Injection, WFI, Fisherscientific #10378939)) or with the empty carrier DMSO at 0.1% v/v as control for 5 days. At day 5 after starting the treatments the cells were subjected to the alamarBlue® Proliferation Assay (Bio-Rad Serotec GmbH, BUF012B) according to the protocol of the manufacturer. The readout was taken with a multi-well plate-reader in the fluorescence mode with applying a filter for excitation at 560 nm (band width 10 nm) and for emission at 590 nm (band width 10 nm). Control treatments for growth inhibition with commercial compounds such as Methotrexate (MTREX) and Resveratrol (RES) were included on every plate. Some of the test compounds of the present invention were obtained and applied as their salts. According cases are indicated in the column “Specification” in Table 30 to Table 62 and by their sum formula in Table 63.
(§2) The assays were performed in duplicate or more replicates of independent single experiments each containing a six-fold replicate for every condition. For every individual plate, the measured fluorescence intensity values of the conditions with compound treatment were normalized against the corresponding equally weighted arithmetic mean of the fluorescence intensity values of the six DMSO treated control wells in order to obtain the relative values to a baseline level of 1.0.
(§3) Two independent outlier analyses were performed according to the methods by Peirce and Chauvenet (Ross, Journal of Engineering Technology 2003, 1-12). Outliers confirmed by at least one of the methods were excluded from the calculations but not more than one value out of six per compound within a single experiment. The weighted arithmetic mean (here abbreviated as AVEw) for each compound was calculated from the normalized values over all independent replicates of the single experiments comprising the six replicates each. The corresponding standard deviation for the weighted arithmetic mean was calculated according to the method described by Bronstein et al. (Bronstein, Semendjajew, Musiol, Muhlig, Taschenbuch der Mathematik, 5th edition 2001 (German), publisher: Verlag Harri Deutsch, Frankfurt am Main and Thun) and was combined with the Gauβ′ error propagation associated with the performed calculation for the normalization. The resulting standard deviation is herein referred to as “combined standard deviation”. […]
`C=Cc1cc(C2CCCCC2)ccc1Oc1ccc(C(=O)OCC)cc1` [XPA-1284, ethyl 4-(4-cyclohexyl-2-vinylphenoxy)benzoate] was tested, and the activity at 20 µM was 60 to 70%.
In the case of `c1ccc(COC2(c3ccc(Oc4ccc(C5CCCCC5)cc4)cc3)CNC2)cc1` [XPA-1317, 3-(benzyloxy)-3-(4-(4-cyclohexylphenoxy)phenyl)azetidine], the activity at 20 µM is reported as 0 to 20%.

What follows are molecules tested on HPEKp cells (human epidermal keratinocyte progenitors, pooled) (assay: Proliferation assay (alamarBlue) with HPEKp cells). Conditions: compound at 10 μM, read-out: Activity Range: weighted arithmetic mean (AVEw) of normalized fluorescence intensity, relative to DMSO basis level 1.0.
Format: cell-based
From the text: as §1, §2, §3
Work on `C=Cc1cc(C2CCCCC2)ccc1Oc1ccc(C(=O)OCC)cc1` [XPA-1284, ethyl 4-(4-cyclohexyl-2-vinylphenoxy)benzoate] yielded an activity at 10 µM of 0 to 20%.
`c1ccc(COC2(c3ccc(Oc4ccc(C5CCCCC5)cc4)cc3)CNC2)cc1` [XPA-1317, 3-(benzyloxy)-3-(4-(4-cyclohexylphenoxy)phenyl)azetidine] showed an activity at 10 µM of 0 to 20%.

The molecules below were run on NB-4 cells (human acute promyelocytic leukemia cells) (assay: Proliferation assay (alamarBlue) with NB-4 cells). Conditions: Homo sapiens, Table 32, compound at 20 μM, read-out: Activity Range (AVEw, weighted arithmetic mean of normalized fluorescence intensity, DMSO = 1.0).
Format: cell-based
From the text: as §1, §2, §3
`C=Cc1cc(C2CCCCC2)ccc1Oc1ccc(C(=O)OCC)cc1` [XPA-1284, ethyl 4-(4-cyclohexyl-2-vinylphenoxy)benzoate] showed an activity at 20 µM of 20 to 40%.
Work on `c1ccc(COC2(c3ccc(Oc4ccc(C5CCCCC5)cc4)cc3)CNC2)cc1` [XPA-1317, 3-(benzyloxy)-3-(4-(4-cyclohexylphenoxy)phenyl)azetidine] yielded an activity at 20 µM of 0 to 20%.

These molecules were tested on TANOUE cells (human B cell leukemia cells) (assay: Proliferation assay (alamarBlue) with TANOUE cells). Conditions: Homo sapiens, B-cell, read-out: Activity Range: weighted arithmetic mean (AVEw) of normalized fluorescence intensity relative to DMSO basis level 1.0.
Format: cell-based
From the text: as §1, §2, §3
In the case of `C=Cc1cc(C2CCCCC2)ccc1Oc1ccc(C(=O)OCC)cc1` [XPA-1284, ethyl 4-(4-cyclohexyl-2-vinylphenoxy)benzoate], the activity at 20 µM is reported as 0 to 20%.
`c1ccc(COC2(c3ccc(Oc4ccc(C5CCCCC5)cc4)cc3)CNC2)cc1` [XPA-1317, 3-(benzyloxy)-3-(4-(4-cyclohexylphenoxy)phenyl)azetidine] gave an activity at 20 µM of 0 to 20%.

What follows are molecules tested on BHY cells (human oral squamous cell carcinoma cells) (assay: Proliferation assay (alamarBlue) with BHY cells). Conditions: read-out: Activity Range: weighted arithmetic mean (AVEw) of normalized fluorescence intensity relative to DMSO basis level 1.0.
Format: cell-based
From the text: as §1, §2, §3
`c1ccc(COC2(c3ccc(Oc4ccc(C5CCCCC5)cc4)cc3)CNC2)cc1` [XPA-1317, 3-(benzyloxy)-3-(4-(4-cyclohexylphenoxy)phenyl)azetidine] was tested, and the activity at 20 µM was 0 to 20%.

The molecules below were run on HH cells (human cutaneous T-cell lymphoma cells) (assay: Proliferation assay (alamarBlue) with HH cells). Conditions: Table 34, compound at 20 μM, read-out: Activity Range (AVEw, weighted arithmetic mean of normalized fluorescence intensity, DMSO = 1.0).
Format: cell-based
From the text: as §1, §2, §3
With `C=Cc1cc(C2CCCCC2)ccc1Oc1ccc(C(=O)OCC)cc1` [XPA-1284, ethyl 4-(4-cyclohexyl-2-vinylphenoxy)benzoate] the activity at 20 µM was 60 to 70%.
In the case of `c1ccc(COC2(c3ccc(Oc4ccc(C5CCCCC5)cc4)cc3)CNC2)cc1` [XPA-1317, 3-(benzyloxy)-3-(4-(4-cyclohexylphenoxy)phenyl)azetidine], the activity at 20 µM is reported as 0 to 20%.

The molecules below were run on 23132/87 cells (human gastric adenocarcinoma cells) (assay: Proliferation assay (alamarBlue) with 23132/87 cells). Conditions: read-out: Activity Range: weighted arithmetic mean (AVEw) of normalized fluorescence intensity relative to DMSO basis level 1.0.
Format: cell-based
From the text: as §1, §2, §3
`C=Cc1cc(C2CCCCC2)ccc1Oc1ccc(C(=O)OCC)cc1` [XPA-1284, ethyl 4-(4-cyclohexyl-2-vinylphenoxy)benzoate] was tested, and the activity at 20 µM was 70 to 80%.
Molecule `c1ccc(COC2(c3ccc(Oc4ccc(C5CCCCC5)cc4)cc3)CNC2)cc1` [XPA-1317, 3-(benzyloxy)-3-(4-(4-cyclohexylphenoxy)phenyl)azetidine] has an activity at 20 µM of 0 to 20%.

What follows are molecules tested on SCC-25 cells (human tongue squamous cell carcinoma cells) (assay: Proliferation assay (alamarBlue) with SCC-25 cells). Conditions: Homo sapiens, read-out: Activity Range: weighted arithmetic mean (AVEw) of normalized fluorescence intensity relative to DMSO basis level 1.0.
Format: cell-based
From the text: as §1, §2, §3
With `C=Cc1cc(C2CCCCC2)ccc1Oc1ccc(C(=O)OCC)cc1` [XPA-1284, ethyl 4-(4-cyclohexyl-2-vinylphenoxy)benzoate] the activity at 20 µM was 70 to 80%.
With `c1ccc(COC2(c3ccc(Oc4ccc(C5CCCCC5)cc4)cc3)CNC2)cc1` [XPA-1317, 3-(benzyloxy)-3-(4-(4-cyclohexylphenoxy)phenyl)azetidine] the activity at 20 µM was 0 to 20%.

Each molecule was assayed on HL-60 cells (human acute myeloid leukemia cells) (assay: Proliferation assay (alamarBlue) with HL-60 cells). Conditions: Homo sapiens, Table 30, compound at 20 μM, read-out: Activity Range (AVEw, weighted arithmetic mean of normalized fluorescence intensity, DMSO = 1.0).
Format: cell-based
From the text: as §1, §2, §3
With `C=Cc1cc(C2CCCCC2)ccc1Oc1ccc(C(=O)OCC)cc1` [XPA-1284, ethyl 4-(4-cyclohexyl-2-vinylphenoxy)benzoate] the activity at 20 µM was 0 to 20%.
`c1ccc(COC2(c3ccc(Oc4ccc(C5CCCCC5)cc4)cc3)CNC2)cc1` [XPA-1317, 3-(benzyloxy)-3-(4-(4-cyclohexylphenoxy)phenyl)azetidine] showed an activity at 20 µM of 0 to 20%.

What follows are molecules tested on C2C12 cells (murine myoblast cells) (assay: Proliferation assay (alamarBlue) with C2C12 cells). Conditions: Mus musculus, compound at 20 μM, read-out: Activity Range: weighted arithmetic mean (AVEw) of normalized fluorescence intensity, relative to DMSO basis level 1.0.
Format: cell-based
From the text: as §1, §2, §3
`C=Cc1cc(C2CCCCC2)ccc1Oc1ccc(C(=O)OCC)cc1` [XPA-1284, ethyl 4-(4-cyclohexyl-2-vinylphenoxy)benzoate] was tested, and the activity at 20 µM was 20 to 40%.
In the case of `c1ccc(COC2(c3ccc(Oc4ccc(C5CCCCC5)cc4)cc3)CNC2)cc1` [XPA-1317, 3-(benzyloxy)-3-(4-(4-cyclohexylphenoxy)phenyl)azetidine], the activity at 20 µM is reported as 0 to 20%.

These molecules were tested on MDA-MB-231 cells (human breast carcinoma cells) (assay: Proliferation assay (alamarBlue) with MDA-MB-231 cells). Conditions: Homo sapiens, read-out: Activity Range: weighted arithmetic mean (AVEw) of normalized fluorescence intensity relative to DMSO basis level 1.0.
Format: cell-based
From the text: as §1, §2, §3
Molecule `C=Cc1cc(C2CCCCC2)ccc1Oc1ccc(C(=O)OCC)cc1` [XPA-1284, ethyl 4-(4-cyclohexyl-2-vinylphenoxy)benzoate] has an activity at 20 µM of 20 to 40%.
`c1ccc(COC2(c3ccc(Oc4ccc(C5CCCCC5)cc4)cc3)CNC2)cc1` [XPA-1317, 3-(benzyloxy)-3-(4-(4-cyclohexylphenoxy)phenyl)azetidine] showed an activity at 20 µM of 0 to 20%.

The molecules below were run on A-431 cells (human epidermoid squamous cell carcinoma cells) (assay: Proliferation assay (alamarBlue) with A-431 cells). Conditions: Homo sapiens, 20 μM, read-out: Activity Range: weighted arithmetic mean (AVEw) of normalized fluorescence intensity relative to DMSO basis level 1.0.
Format: cell-based
From the text: as §1, §2, §3
Work on `C=Cc1cc(C2CCCCC2)ccc1Oc1ccc(C(=O)OCC)cc1` [XPA-1284, ethyl 4-(4-cyclohexyl-2-vinylphenoxy)benzoate] yielded an activity at 20 µM of 40 to 60%.
`c1ccc(COC2(c3ccc(Oc4ccc(C5CCCCC5)cc4)cc3)CNC2)cc1` [XPA-1317, 3-(benzyloxy)-3-(4-(4-cyclohexylphenoxy)phenyl)azetidine] showed an activity at 20 µM of 0 to 20%.

These molecules were tested on RPMI-8402 cells (human T cell acute lymphoblastic leukemia cells) (assay: Proliferation assay (alamarBlue) with RPMI-8402 cells). Conditions: Homo sapiens, read-out: Activity Range: weighted arithmetic mean (AVEw) of normalized fluorescence intensity relative to DMSO basis level 1.0.
Format: cell-based
From the text: as §1, §2, §3
Work on `C=Cc1cc(C2CCCCC2)ccc1Oc1ccc(C(=O)OCC)cc1` [XPA-1284, ethyl 4-(4-cyclohexyl-2-vinylphenoxy)benzoate] yielded an activity at 20 µM of 20 to 40%.
Molecule `c1ccc(COC2(c3ccc(Oc4ccc(C5CCCCC5)cc4)cc3)CNC2)cc1` [XPA-1317, 3-(benzyloxy)-3-(4-(4-cyclohexylphenoxy)phenyl)azetidine] has an activity at 20 µM of 0 to 20%.
